Assay results taken from PubChem BioAssay (NCI).
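Five compound concentrations were applied to cells in 96-well plates for 48 hours; endpoints were derived by simple linear interpolation of the resulting dose-response curve. GI50 = concentration required for 50% inhibition of growth. The concentration for full growth arrest is given as TGI.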

Key:
Assay in all cases: DTP human tumour cell line panel, 48 h
OVCAR-8 ovarian = system: OVCAR-8 ovarian
HOP-62 NSCLC = system: HOP-62 NSCLC
SF-539 CNS = system: SF-539 CNS
M14 melanoma = system: M14 melanoma
UACC-62 melanoma = system: UACC-62 melanoma
COLO 205 colon = system: COLO 205 colon
786-0 renal = system: 786-0 renal
UACC-257 melanoma = system: UACC-257 melanoma
CAKI-1 renal = system: CAKI-1 renal
MCF7 breast = system: MCF7 breast

| SMILES | TGI (OVCAR-8 ovarian) [µM] | TGI (HOP-62 NSCLC) [µM] | TGI (SF-539 CNS) [µM] | TGI (M14 melanoma) [µM] | TGI (UACC-62 melanoma) [µM] | TGI (COLO 205 colon) [µM] | TGI (786-0 renal) [µM] | TGI (UACC-257 melanoma) [µM] | TGI (CAKI-1 renal) [µM] | GI50 (OVCAR-8 ovarian) [µM] | GI50 (HOP-62 NSCLC) [µM] | GI50 (M14 melanoma) [µM] | GI50 (UACC-62 melanoma) [µM] | GI50 (786-0 renal) [µM] | GI50 (CAKI-1 renal) [µM] | GI50 (SF-539 CNS) [µM] | GI50 (MCF7 breast) [µM] | TGI (MCF7 breast) [µM] | GI50 (UACC-257 melanoma) [µM] | GI50 (COLO 205 colon) [µM] |
| --- | --- | --- | --- | --- | --- | --- | --- | --- | --- | --- | --- | --- | --- | --- | --- | --- | --- | --- | --- | --- |
| Cc1nc2c(o1)C(=Nc1ccccc1)c1nc(C)oc1C2=Nc1ccccc1 | 34.3 | 36.3 | 27.3 | > 100 | 39.4 | > 100 | 34.2 | 97.6 |  |  |  |  |  |  |  |  |  |  |  |  |
| O=C(/C=C/c1cccc([N+](=O)[O-])c1)c1ccc([N+](=O)[O-])cc1 | > 100 | > 100 | > 100 | > 100 | > 100 | > 100 | > 100 | > 100 | > 100 |  |  |  |  |  |  |  |  |  |  |  |
| COC(=O)C1C(=O)O[C@@H](c2cc(OC)c(OC)cc2OC)C1C(=O)OC (mixture of isomers) | > 100 | > 100 | > 100 | > 100 | > 100 | > 100 | > 100 | > 100 | > 100 |  |  |  |  |  |  |  |  |  |  |  |
| O=C(O)C1[O][Sb][O]C(C(=O)O)C1O (stereo not drawn) | > 100 | > 100 |  | > 100 | > 100 |  | > 100 |  | > 100 | > 100 | > 100 | > 100 | > 100 | > 100 | > 100 |  |  |  |  |  |
| CCOc1ccccc1N=Nc1c(-c2ccccc2)nn(C(=O)CC(=O)Nc2cccc(C)c2)c1-c1ccccc1 | > 100 | > 100 | > 100 | > 100 | > 100 | > 100 | > 100 | > 100 | > 100 |  |  |  |  |  |  |  |  |  |  |  |
| CC1NC(=O)C2=C1C(=O)NC(=O)C2 (stereo not drawn) | > 100 | > 100 | > 100 | > 100 | > 100 |  | > 100 | > 100 | > 100 | > 100 | > 100 | > 100 | > 100 | > 100 | > 100 | > 100 | > 100 | > 100 | > 100 |  |
| CNS(=O)(=O)NNS(=O)(=O)c1ccc(OC)cc1 | > 100 | > 100 | > 100 | > 100 | > 100 | > 100 | > 100 | > 100 | > 100 |  |  |  |  |  |  |  |  |  |  |  |
| NC1=NN(c2ccccc2)C(=O)C1C(=O)C(=O)Nc1ccc(Cl)c(Cl)c1 (stereo not drawn) | > 100 | > 100 | > 100 | > 100 | > 100 | > 100 | > 100 | > 100 | > 100 |  |  |  |  |  |  |  |  |  |  |  |
| CCNC(=O)OCc1c(COC(=O)NCC)c(-c2ccc(Cl)c(Cl)c2)n2c1CCC2 | 41.7 | 23.8 | 25.6 | 24.3 | 23.1 | 62.1 | 33.5 | 83.8 | 14.6 |  |  |  |  |  |  |  |  |  |  |  |
| COc1cc(/C=N/N=C(\N)NO)c(Cl)cc1O | > 100 |  | > 100 |  | > 100 | > 100 | > 100 | > 100 | > 100 |  |  |  |  |  |  |  |  |  |  |  |
| N#CC(C(=O)/C(=N\NC(N)=O)C(C#N)c1ccccc1)c1ccccc1 (stereo not drawn) | > 100 | > 100 | > 100 | > 100 | > 100 | > 100 | > 100 | > 100 | > 100 |  |  |  |  |  |  |  |  |  |  |  |
| O=C(NCC1CCCO1)c1ccc(NC2=C(Cl)C(=O)N(Cc3ccccc3)C2=O)cc1 (stereo not drawn) | 54.6 |  | 31.2 | 23.4 | 24.3 | 71.9 | 28.6 | 45.6 | 3.34 | 16.7 |  | 11.2 | 10.8 | 15.2 | 1.79 | 15.4 | 4.39 | 26.6 | 17 | 23 |
| COC1(OC)C2(Cl)C(Cl)=C(Cl)C1(Cl)C1C2C2CC1(C(=O)O)c1ccccc12 (stereo not drawn) | 88.3 | 62.8 |  | 32 | 34.8 | 51.1 | 31.6 | 47.4 | 83.1 |  |  |  |  |  |  |  |  |  |  |  |
| Cc1cc2c(-c3nc4ccccn4c3N)c(O)c(O)cc2c(O)c1-c1c(C)cc2c(-c3nc4ccccn4c3N)c(O)c(O)cc2c1O | > 25 | > 25 | 20.9 | > 25 | 7.05 | > 25 | > 25 | > 25 |  | 0.975 | 1.15 | 1.18 | 0.723 | 2.82 |  | 0.707 | 0.606 | > 25 | 2.9 | 1.07 |
| O=C1c2ccccc2C2CCC1c1ccccc12 (stereo not drawn) | > 100 | > 100 | > 100 | > 100 | > 100 | 46.8 | > 100 | 76.6 | > 100 |  |  |  |  |  |  |  |  |  |  |  |
| CN1CCN(C(=O)COc2ccc(/C=C3\CC4C5CC=C6CC(Cl)CCC6(C)C5CCC4(C)C3=O)cc2)CC1 (stereo not drawn) | > 100 | > 100 | > 100 | > 100 | > 100 | > 100 | > 100 |  | > 100 | > 100 | 36.4 | > 100 | > 100 | 88.1 | > 100 | > 100 | > 100 | > 100 |  | > 100 |
| COC1OC2COC(C)(C)OC2C(OC(C)=O)C1NC(=O)N(CCCl)N=O (stereo not drawn) | > 100 | > 100 | 93.1 | > 100 | > 100 | > 100 | > 100 | > 100 | > 100 |  |  |  |  |  |  |  |  |  |  |  |
| Clc1cccc(C2N3CCCCC3[C@@H]3c4[nH]c5ccccc5c4CCN23)c1 (stereo partly drawn) | > 100 | > 100 | 57.7 | 78.5 | 30.7 |  | > 100 | 98.2 | > 100 |  |  |  |  |  |  |  |  |  |  |  |
| C/C=C1\CN2CCc3c([nH]c4ccccc34)C2CC1CCO (stereo not drawn) | > 100 | > 100 | > 100 | > 100 |  | > 100 | > 100 | > 100 |  |  |  |  |  |  |  |  |  |  |  |  |
